Literature values as cited in patent US20240209370A1, “METHODS OF MODULATING ALK” (SOCIETE DES PRODUITS NESTLE S.A., priority 2017, published 2024).

Target: ALK (Homo sapiens, UniProt Q9UM73)
Details: effect on ALK activity or expression as listed from ctdbase, Medline or cited patents

Chain of ALK (Q9UM73 19-1620): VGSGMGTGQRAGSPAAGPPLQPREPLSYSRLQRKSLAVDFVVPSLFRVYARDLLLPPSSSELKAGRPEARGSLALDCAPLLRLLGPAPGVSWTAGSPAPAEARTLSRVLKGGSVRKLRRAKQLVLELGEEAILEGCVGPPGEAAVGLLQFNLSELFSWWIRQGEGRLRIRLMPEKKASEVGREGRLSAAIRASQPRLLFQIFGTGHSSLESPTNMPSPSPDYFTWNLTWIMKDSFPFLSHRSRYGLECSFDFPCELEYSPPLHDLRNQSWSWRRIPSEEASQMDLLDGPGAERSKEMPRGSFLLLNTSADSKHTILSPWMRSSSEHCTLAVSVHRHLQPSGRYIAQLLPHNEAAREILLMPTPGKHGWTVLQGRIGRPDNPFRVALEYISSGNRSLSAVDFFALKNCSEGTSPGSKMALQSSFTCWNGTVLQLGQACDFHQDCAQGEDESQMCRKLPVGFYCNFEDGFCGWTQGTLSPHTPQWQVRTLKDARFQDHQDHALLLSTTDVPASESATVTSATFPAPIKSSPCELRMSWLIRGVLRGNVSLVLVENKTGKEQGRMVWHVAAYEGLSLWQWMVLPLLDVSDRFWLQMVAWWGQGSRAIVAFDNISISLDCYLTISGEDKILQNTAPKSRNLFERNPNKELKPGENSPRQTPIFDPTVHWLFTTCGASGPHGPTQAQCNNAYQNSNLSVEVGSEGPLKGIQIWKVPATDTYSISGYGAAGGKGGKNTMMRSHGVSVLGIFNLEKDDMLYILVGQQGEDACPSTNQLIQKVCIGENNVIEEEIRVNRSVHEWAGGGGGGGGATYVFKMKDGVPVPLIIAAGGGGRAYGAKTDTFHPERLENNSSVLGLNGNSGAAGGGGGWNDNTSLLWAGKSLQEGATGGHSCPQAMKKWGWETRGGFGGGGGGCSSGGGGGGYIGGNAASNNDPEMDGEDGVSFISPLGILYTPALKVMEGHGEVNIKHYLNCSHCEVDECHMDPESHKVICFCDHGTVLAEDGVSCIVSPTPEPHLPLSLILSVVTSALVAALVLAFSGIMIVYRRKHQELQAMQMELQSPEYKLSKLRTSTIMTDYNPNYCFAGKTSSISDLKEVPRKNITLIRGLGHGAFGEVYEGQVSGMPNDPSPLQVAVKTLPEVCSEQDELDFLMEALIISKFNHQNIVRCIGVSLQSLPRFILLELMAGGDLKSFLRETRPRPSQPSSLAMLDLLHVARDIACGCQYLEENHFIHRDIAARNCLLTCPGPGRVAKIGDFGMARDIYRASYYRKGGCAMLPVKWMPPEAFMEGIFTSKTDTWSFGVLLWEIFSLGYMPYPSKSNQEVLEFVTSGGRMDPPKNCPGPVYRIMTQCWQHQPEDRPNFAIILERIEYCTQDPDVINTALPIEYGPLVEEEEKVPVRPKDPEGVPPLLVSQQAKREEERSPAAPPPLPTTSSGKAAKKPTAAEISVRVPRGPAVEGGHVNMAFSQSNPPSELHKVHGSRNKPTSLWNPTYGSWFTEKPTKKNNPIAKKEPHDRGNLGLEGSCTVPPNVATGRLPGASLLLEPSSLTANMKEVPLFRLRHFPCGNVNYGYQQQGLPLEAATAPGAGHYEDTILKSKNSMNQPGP

Row | Compound | Interaction Actions
1 | CO[C@H]1C[C@@H]2CC[C@@H](C)[C@@](O)(O2)C(=O)C(=O)N2CCCC[C@H]2C(=O)O[C@H]([C@H](C)C[C@@H]2CC[C@@H](OCCO)[C@H](OC)C2)CC(=O)[C@H](C)/C=C(\C)[C@@H](O)[C@@H](OC)C(=O)[C@H](C)C[C@H](C)/C=C/C=C/C=C/1C [everolimus] | inhibit
2 | C[C@H](Cc1ccc(O)c(O)c1)[C@@H](C)Cc1ccc(O)c(O)c1 [Masoprocol] | decreases activity
3 | COc1cc2nccc(Oc3ccc(NC(=O)Nc4cc(C)on4)c(Cl)c3)c2cc1OC [tivozanib] | inhibit
4 | CO[C@H]1[C@@H](OC)C[C@H](C)[C@@H](OC)C2=CC(=O)C=C(NC(=O)/C(C)=C/C=C\[C@H](OC)[C@@H](OC(N)=O)/C(C)=C/[C@@H]1C)C2=O [herbimycin] | inhibit
5 | CS(=O)(=O)CCNCc1ccc(-c2ccc3ncnc(Nc4ccc(OCc5cccc(F)c5)c(Cl)c4)c3c2)o1 [lapatinib] | inhibit
6 | C[C@H]1c2cccc(O)c2C(O)=C2C(=O)[C@]3(O)C(O)=C(C(N)=O)C(=O)[C@@H](N(C)C)[C@@H]3[C@@H](O)[C@@H]21 [vibramycin] | inhibit

Now from value to compound:

Row | Interaction Actions | Compound
7 | affects activity | CC(=O)N[C@@H](CS)C(=O)O [Acetylcysteine]
8 | terminate | heparin
9 | suppress | C[C@]12CCC(=O)C=C1CC[C@@H]1[C@@H]2[C@@H](O)C[C@@]2(C)[C@H]1CC[C@]2(O)C(=O)CO [hydrocortisone]
10 | inhibit | Cc1cc(Nc2ncc(Cl)c(Nc3ccccc3S(=O)(=O)C(C)C)n2)c(OC(C)C)cc1C1CCNCC1 [ceritinib]
11 | inhibit | O=S(=O)(O)OC[C@H]1O[C@@](COS(=O)(=O)O)(O[C@H]2O[C@H](COS(=O)(=O)O)[C@@H](OS(=O)(=O)O)[C@H](OS(=O)(=O)O)[C@H]2OS(=O)(=O)O)[C@@H](OS(=O)(=O)O)[C@@H]1OS(=O)(=O)O [sucrose octasulfate]
12 | decreases expression | CC1=C(/C=C/C(C)=C/C=C/C(C)=C/C(=O)O)C(C)(C)CCC1 [Tretinoin]
13 | inhibit | Cc1cc(O)c2c(c1)C(=O)c1cc(O)cc(O)c1C2=O [emodin]
14 | inhibit | c1cncnc1 [pyrimidine]
15 | inhibit | COc1cc2c(Oc3ccc(NC(=O)C4(C(=O)Nc5ccc(F)cc5)CC4)cc3F)ccnc2cc1OCCCN1CCOCC1 [foretinib]
